Assay results taken from patent US20260248787A9, “MEDICAMENT FOR TREATING CANCER COMPRISING OPTICALLY ACTIVE AZABICYCLO RING DERIVATIVE” (Sumitomo Pharma Co., Ltd., priority 2023, published 2026).
Marks after values point to notes of the source that are not given here.

Test: Phase 1/2 first-in-human clinical study, safety evaluation (DLT, TEAE, SAE)

## C=C1C[C@@H]2CC[C@H]1[C@@H](C(=O)N1CCC3(CC1)CN(c1ncncc1Oc1ccc(F)cc1C(=O)N(C(C)C)C(C)C)C3)N2 [the present compound, 5-fluoro-2-[(4-{7-[(1S,3S,4R)-5-methylidene-2-azabicyclo[2.2.2]octane-3-carbonyl]-2,7-diazaspiro[3.5]nonan-2-yl}pyrimidin-5-yl)oxy]-N,N-di(propan-2-yl)benzamide]
40 mg BID Arm B (N=4; one patient not DLT evaluable)
  Patients with any DLTs: 0* n (%) and (0.0) n (%)
24 patients enrolled
  cases of differentiation syndrome in patients with MLLr or NPM1m: no cases
  grade of the majority of TEAEs related to the present compound: Grade 1 or 2
  patients who experienced at least one TEAE: 24 patients
  related TEAE leading to dose withdrawn or dose reduction: No related TEAE leading to dose withdrawn or dose reduction
24 patients enrolled (40-120 mg BID Arm A, 40-60 mg BID Arm B)
  patients who developed DLT: none
24 patients, Arm A + Arm B
  patients with fatal SAEs, total (all unrelated): 8 patients
  patients with serious adverse events (SAEs), total: 15 patients
40 to 300 mg BID (Examples 1 and 5)
  safety in humans: confirmed to be safe
43 patients, 40-200 mg BID
  Treatment-related QT interval prolongation events: not reported
  cases of differentiation syndrome in patients with MLLr or NPM1m: no cases
  drug-related AE resulting in permanent treatment discontinuation: No drug-related AE
  grade of the majority of TEAEs: Grade 1 or Grade 2
  treatment-related deaths: no treatment-related deaths
43 patients, any dose level of 40-200 mg
  DLTs: No DLTs
43 patients, patient with TP-53 mutation
  cases of suspected differentiation syndrome related to the present compound: One
57 patients, 40-300 mg
  Differentiation syndrome (DS): 3 patients
  drug-related AE resulting in permanent treatment discontinuation: No drug-related AE
  treatment-related deaths: no treatment-related deaths
57 patients, any dose level of 40-300 mg
  DLTs: no DLTs
Arm A N=14, Any Grade
  Patients with Any TEAE: 14 (100.0) n (%)
  TEAE: Alanine aminotransferase increased: 1 (7.1) n (%)
  TEAE: Anaemia: 5 (35.7) n (%)
  TEAE: Aspartate aminotransferase increased: 2 (14.3) n (%)
  TEAE: Blood and lymphatic system disorders: 10 (71.4) n (%)
  TEAE: Constipation: 3 (21.4) n (%)
  TEAE: Decreased appetite: 3 (21.4) n (%)
  TEAE: Disease progression: 1 (7.1) n (%)
  TEAE: Dyspnoea: 3 (21.4) n (%)
  TEAE: Epistaxis: 1 (7.1) n (%)
  TEAE: Fatigue: 3 (21.4) n (%)
  TEAE: Gastrointestinal disorders: 9 (64.3) n (%)
  TEAE: General disorders and administration site disorders: 8 (57.1) n (%)
  TEAE: Headache: 5 (35.7) n (%)
  TEAE: Hemorrhoids: 0 n (%)
  TEAE: Hypertriglyceridaemia: 1 (7.1) n (%)
  TEAE: Hypoalbuminaemia: 3 (21.4) n (%)
  TEAE: Hypocalcaemia: 3 (21.4) n (%)
  TEAE: Hypokalaemia: 2 (14.3) n (%)
  TEAE: Hypomagnaesemia: 3 (21.4) n (%)
  TEAE: Hyponatraemia: 4 (28.6) n (%)
  TEAE: Infections and Infestations: 8 (57.1) n (%)
  TEAE: Investigations: 10 (71.4) n (%)
  TEAE: Metabolism and nutrition disorders: 11 (78.6) n (%)
  TEAE: Musculoskeletal and connective tissue disorders: 7 (50.0) n (%)
  TEAE: Nausea: 5 (35.7) n (%)
  TEAE: Nervous System Disorders: 7 (50.0) n (%)
  TEAE: Oedema peripheral: 2 (14.3) n (%)
  TEAE: Pain in extremity: 3 (21.4) n (%)
  TEAE: Platelet count decreased: 3 (21.4) n (%)
  TEAE: Pneumonia: 2 (14.3) n (%)
  TEAE: Pruritus: 3 (21.4) n (%)
  TEAE: Pyrexia: 3 (21.4) n (%)
  TEAE: Respiratory, thoracic and mediastinal disorders: 6 (42.9) n (%)
  TEAE: Sepsis: 2 (14.3) n (%)
  TEAE: Skin and subcutaneous tissue disorders: 5 (35.7) n (%)
  TEAE: Stomatitis: 1 (7.1) n (%)
  TEAE: Vomiting: 3 (21.4) n (%)
  related TEAE: Aspartate aminotransferase increased: 0 n (%)
  related TEAE: Blood and lymphatic system disorders: 0 n (%)
  related TEAE: Decreased appetite: 2 (14.3) n (%)
  related TEAE: Differentiation syndrome: 1 (7.1) n (%)
  related TEAE: Gastrointestinal disorders: 2 (14.3) n (%)
  related TEAE: General disorders and administration site conditions: 1 (7.1) n (%)
  related TEAE: Headache: 1 (7.1) n (%)
  related TEAE: Hypertriglyceridaemia: 0 n (%)
  related TEAE: Hyperuricaemia: 1 (7.1) n (%)
  related TEAE: Increased appetite: 1 (7.1) n (%)
  related TEAE: Investigations: 0 n (%)
  related TEAE: Leukocytosis: 0 n (%)
  related TEAE: Metabolism and nutrition disorders: 4 (28.6) n (%)
  related TEAE: Nausea: 2 (14.3) n (%)
  related TEAE: Neoplasms benign, malignant and unspecified (incl cysts and polyps): 1 (7.1) n (%)
  related TEAE: Nervous system disorders: 1 (7.1) n (%)
  related TEAE: Thirst: 1 (7.1) n (%)
  related TEAE: Vomiting: 2 (14.3) n (%)
Arm A N=14, ≥Grade 3
  Patients with Any TEAE: 14 (100.0) n (%)
  TEAE: Alanine aminotransferase increased: 0 n (%)
  TEAE: Anaemia: 4 (28.6) n (%)
  TEAE: Aspartate aminotransferase increased: 1 (7.1) n (%)
  TEAE: Blood and lymphatic system disorders: 8 (57.1) n (%)
  TEAE: Constipation: 0 n (%)
  TEAE: Decreased appetite: 0 n (%)
  TEAE: Disease progression: 1 (7.1) n (%)
  TEAE: Dyspnoea: 1 (7.1) n (%)
  TEAE: Epistaxis: 0 n (%)
  TEAE: Fatigue: 0 n (%)
  TEAE: Gastrointestinal disorders: 1 (7.1) n (%)
  TEAE: General disorders and administration site disorders: 2 (14.3) n (%)
  TEAE: Headache: 0 n (%)
  TEAE: Hemorrhoids: 0 n (%)
  TEAE: Hypertriglyceridaemia: 0 n (%)
  TEAE: Hypoalbuminaemia: 0 n (%)
  TEAE: Hypocalcaemia: 0 n (%)
  TEAE: Hypokalaemia: 0 n (%)
  TEAE: Hypomagnaesemia: 0 n (%)
  TEAE: Hyponatraemia: 0 n (%)
  TEAE: Infections and Infestations: 6 (42.9) n (%)
  TEAE: Investigations: 4 (28.6) n (%)
  TEAE: Metabolism and nutrition disorders: 1 (7.1) n (%)
  TEAE: Musculoskeletal and connective tissue disorders: 0 n (%)
  TEAE: Nausea: 0 n (%)
  TEAE: Nervous System Disorders: 2 (14.3) n (%)
  TEAE: Oedema peripheral: 0 n (%)
  TEAE: Pain in extremity: 0 n (%)
  TEAE: Platelet count decreased: 1 (7.1) n (%)
  TEAE: Pneumonia: 2 (14.3) n (%)
  TEAE: Pruritus: 0 n (%)
  TEAE: Pyrexia: 0 n (%)
  TEAE: Respiratory, thoracic and mediastinal disorders: 2 (14.3) n (%)
  TEAE: Sepsis: 2 (14.3) n (%)
  TEAE: Skin and subcutaneous tissue disorders: 0 n (%)
  TEAE: Stomatitis: 0 n (%)
  TEAE: Vomiting: 0 n (%)
  related TEAE: Aspartate aminotransferase increased: 0 n (%)
  related TEAE: Blood and lymphatic system disorders: 0 n (%)
  related TEAE: Decreased appetite: 0 n (%)
  related TEAE: Differentiation syndrome: 1 (7.1) n (%)
  related TEAE: Gastrointestinal disorders: 0 n (%)
  related TEAE: General disorders and administration site conditions: 0 n (%)
  related TEAE: Headache: 0 n (%)
  related TEAE: Hypertriglyceridaemia: 0 n (%)
  related TEAE: Hyperuricaemia: 0 n (%)
  related TEAE: Increased appetite: 0 n (%)
  related TEAE: Investigations: 0 n (%)
  related TEAE: Leukocytosis: 0 n (%)
  related TEAE: Metabolism and nutrition disorders: 0 n (%)
  related TEAE: Nausea: 0 n (%)
  related TEAE: Neoplasms benign, malignant and unspecified (incl cysts and polyps): 1 (7.1) n (%)
  related TEAE: Nervous system disorders: 0 n (%)
  related TEAE: Thirst: 0 n (%)
  related TEAE: Vomiting: 0 n (%)
Arm B N=10, Any Grade
  Patients with Any TEAE: 10 (100.0) n (%)
  TEAE: Alanine aminotransferase increased: 2 (20.0) n (%)
  TEAE: Anaemia: 1 (10.0) n (%)
  TEAE: Aspartate aminotransferase increased: 2 (20.0) n (%)
  TEAE: Blood and lymphatic system disorders: 3 (30.0) n (%)
  TEAE: Constipation: 1 (10.0) n (%)
  TEAE: Decreased appetite: 0 n (%)
  TEAE: Disease progression: 2 (20.0) n (%)
  TEAE: Dyspnoea: 1 (10.0) n (%)
  TEAE: Epistaxis: 2 (20.0) n (%)
  TEAE: Fatigue: 2 (20.0) n (%)
  TEAE: Gastrointestinal disorders: 6 (60.0) n (%)
  TEAE: General disorders and administration site disorders: 3 (30.0) n (%)
  TEAE: Headache: 1 (20.0) n (%)
  TEAE: Hemorrhoids: 2 (20.0) n (%)
  TEAE: Hypertriglyceridaemia: 2 (20.0) n (%)
  TEAE: Hypoalbuminaemia: 0 n (%)
  TEAE: Hypocalcaemia: 1 (10.0) n (%)
  TEAE: Hypokalaemia: 3 (30.0) n (%)
  TEAE: Hypomagnaesemia: 0 n (%)
  TEAE: Hyponatraemia: 0 n (%)
  TEAE: Infections and Infestations: 6 (60.0) n (%)
  TEAE: Investigations: 3 (30.0) n (%)
  TEAE: Metabolism and nutrition disorders: 5 (50.0) n (%)
  TEAE: Musculoskeletal and connective tissue disorders: 2 (20.0) n (%)
  TEAE: Nausea: 3 (30.0) n (%)
  TEAE: Nervous System Disorders: 2 (20.0) n (%)
  TEAE: Oedema peripheral: 0 n (%)
  TEAE: Pain in extremity: 1 (10.0) n (%)
  TEAE: Platelet count decreased: 0 n (%)
  TEAE: Pneumonia: 2 (20.0) n (%)
  TEAE: Pruritus: 0 n (%)
  TEAE: Pyrexia: 0 n (%)
  TEAE: Respiratory, thoracic and mediastinal disorders: 3 (30.0) n (%)
  TEAE: Sepsis: 2 (20.0) n (%)
  TEAE: Skin and subcutaneous tissue disorders: 1 (10.0) n (%)
  TEAE: Stomatitis: 2 (20.0) n (%)
  TEAE: Vomiting: 1 (10.0) n (%)
  related TEAE: Aspartate aminotransferase increased: 1 (10.0) n (%)
  related TEAE: Blood and lymphatic system disorders: 1 (10.0) n (%)
  related TEAE: Decreased appetite: 0 n (%)
  related TEAE: Differentiation syndrome: 0 n (%)
  related TEAE: Gastrointestinal disorders: 1 (10.0) n (%)
  related TEAE: General disorders and administration site conditions: 0 n (%)
  related TEAE: Headache: 0 n (%)
  related TEAE: Hypertriglyceridaemia: 1 (10.0) n (%)
  related TEAE: Hyperuricaemia: 0 n (%)
  related TEAE: Increased appetite: 0 n (%)
  related TEAE: Investigations: 1 (10.0) n (%)
  related TEAE: Leukocytosis: 1 (10.0) n (%)
  related TEAE: Metabolism and nutrition disorders: 1 (10.0) n (%)
  related TEAE: Nausea: 1 (10.0) n (%)
  related TEAE: Neoplasms benign, malignant and unspecified (incl cysts and polyps): 0 n (%)
  related TEAE: Nervous system disorders: 0 n (%)
  related TEAE: Thirst: 0 n (%)
  related TEAE: Vomiting: 1 (10.0) n (%)
Arm B N=10, ≥Grade 3
  Patients with Any TEAE: 8 (80.0) n (%)
  TEAE: Alanine aminotransferase increased: 0 n (%)
  TEAE: Anaemia: 0 n (%)
  TEAE: Aspartate aminotransferase increased: 1 (10.0) n (%)
  TEAE: Blood and lymphatic system disorders: 3 (30.0) n (%)
  TEAE: Constipation: 0 n (%)
  TEAE: Decreased appetite: 0 n (%)
